27 compounds from patent publication US10273222B2 (CELGENE QUANTICEL RESEARCH, INC., priority 2013, dated 2019) can be followed below.

Assay type in all cases: biochemical
One experiment addresses JMJD2C (Homo sapiens (Human), UniProt Q9H3R0). The experiment in a line: JMJD2C in vitro enzyme inhibition assay (TR-FRET). On the technique in general: In TR-FRET formats the signal depends on donor and acceptor labels being close together.
The next experiment concerns the target Jarid1B (Homo sapiens (Human), UniProt Q9UGL1). The experiment in a line: Jarid1B in vitro enzyme inhibition assay (TR-FRET).
Another experiment deals with Jarid1A (Homo sapiens (Human), UniProt P29375). Briefly: Jarid1A in vitro enzyme inhibition assay (TR-FRET). The text has this: The enzymatic assay of Jarid1A activity is based upon Time Resolved-Fluorescence Resonance Energy Transfer (TR-FRET) detection.
A further experiment concerns the target FBXL10 (Homo sapiens (Human), UniProt Q8NHM5). The experiment in a line: FBXL10 in vitro enzyme inhibition assay (AlphaScreen). On the procedure:
Reaction product was determined quantitatively by AlphaScreen detection after the addition of detection reagents anti-H3K36me1 antibody, AlphaScreen® Streptavidin-coated Donor beads, and AlphaScreen® Protein A Acceptor beads in 50 mM HEPES, pH7.3, 10 mM NaCl, 0.005% Brij35, 5 mM EDTA, 2 mg/ml BSA to final 10 μg/ml beads.
Plates were incubated at room temperature for 40 minutes, followed by addition of 3 μl of 50 μg/ml AlphaScreen® Streptavidin-coated Donor beads and AlphaScreen® Protein A Acceptor beads in 50 mM HEPES, pH7.3, 10 mM NaCl, 0.005% Brij35, 5 mM EDTA, 2 mg/ml BSA. Plates were read by EnVisionMultilabel Reader in AlphaScreen mode after a minimum of 2 hour or up to overnight incubation at room temperature. The AlphaScreen signal for each well was used to determine inhibition constant (IC50).

Sequence of Jarid1A (P29375 1-1090): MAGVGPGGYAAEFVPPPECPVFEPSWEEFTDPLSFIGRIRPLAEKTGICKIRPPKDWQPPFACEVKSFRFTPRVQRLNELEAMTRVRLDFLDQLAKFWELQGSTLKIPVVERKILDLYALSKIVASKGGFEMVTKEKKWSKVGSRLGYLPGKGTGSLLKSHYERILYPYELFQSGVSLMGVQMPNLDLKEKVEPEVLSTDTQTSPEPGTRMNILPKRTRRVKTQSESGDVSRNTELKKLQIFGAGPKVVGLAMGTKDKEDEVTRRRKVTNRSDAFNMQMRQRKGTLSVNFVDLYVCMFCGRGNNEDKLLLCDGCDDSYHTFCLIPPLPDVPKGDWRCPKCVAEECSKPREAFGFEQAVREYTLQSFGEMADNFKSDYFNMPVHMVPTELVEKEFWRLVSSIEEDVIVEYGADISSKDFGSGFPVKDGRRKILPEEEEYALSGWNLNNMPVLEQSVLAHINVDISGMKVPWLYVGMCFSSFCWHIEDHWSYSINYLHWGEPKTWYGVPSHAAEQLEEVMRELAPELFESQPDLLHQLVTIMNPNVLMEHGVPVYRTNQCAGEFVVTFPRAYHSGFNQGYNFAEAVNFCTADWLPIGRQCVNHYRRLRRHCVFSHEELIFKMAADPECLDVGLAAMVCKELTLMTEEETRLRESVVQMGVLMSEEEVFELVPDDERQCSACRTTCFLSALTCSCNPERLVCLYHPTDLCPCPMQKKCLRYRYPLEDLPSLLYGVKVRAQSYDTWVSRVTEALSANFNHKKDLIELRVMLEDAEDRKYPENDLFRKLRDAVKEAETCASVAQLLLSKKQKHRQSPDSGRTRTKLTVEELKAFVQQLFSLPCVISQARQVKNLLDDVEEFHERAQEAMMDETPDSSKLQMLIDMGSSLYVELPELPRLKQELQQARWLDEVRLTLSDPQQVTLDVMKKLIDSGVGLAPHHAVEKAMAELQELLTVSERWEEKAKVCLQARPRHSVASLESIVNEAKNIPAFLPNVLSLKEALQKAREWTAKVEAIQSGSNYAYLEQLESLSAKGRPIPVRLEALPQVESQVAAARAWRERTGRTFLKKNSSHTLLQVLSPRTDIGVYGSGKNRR
Sequence of JMJD2C (Q9H3R0 2-372): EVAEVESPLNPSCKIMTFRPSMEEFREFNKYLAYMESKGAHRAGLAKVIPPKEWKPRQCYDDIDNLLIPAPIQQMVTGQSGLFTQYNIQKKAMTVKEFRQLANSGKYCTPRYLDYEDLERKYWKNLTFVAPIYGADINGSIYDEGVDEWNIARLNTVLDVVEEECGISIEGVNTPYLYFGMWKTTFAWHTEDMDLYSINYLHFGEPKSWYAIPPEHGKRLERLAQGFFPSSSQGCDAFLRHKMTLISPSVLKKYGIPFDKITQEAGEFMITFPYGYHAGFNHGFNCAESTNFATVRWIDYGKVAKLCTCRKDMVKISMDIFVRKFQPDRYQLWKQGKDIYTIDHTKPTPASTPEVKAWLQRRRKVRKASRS
Sequence of Jarid1B (Q9UGL1 2-751): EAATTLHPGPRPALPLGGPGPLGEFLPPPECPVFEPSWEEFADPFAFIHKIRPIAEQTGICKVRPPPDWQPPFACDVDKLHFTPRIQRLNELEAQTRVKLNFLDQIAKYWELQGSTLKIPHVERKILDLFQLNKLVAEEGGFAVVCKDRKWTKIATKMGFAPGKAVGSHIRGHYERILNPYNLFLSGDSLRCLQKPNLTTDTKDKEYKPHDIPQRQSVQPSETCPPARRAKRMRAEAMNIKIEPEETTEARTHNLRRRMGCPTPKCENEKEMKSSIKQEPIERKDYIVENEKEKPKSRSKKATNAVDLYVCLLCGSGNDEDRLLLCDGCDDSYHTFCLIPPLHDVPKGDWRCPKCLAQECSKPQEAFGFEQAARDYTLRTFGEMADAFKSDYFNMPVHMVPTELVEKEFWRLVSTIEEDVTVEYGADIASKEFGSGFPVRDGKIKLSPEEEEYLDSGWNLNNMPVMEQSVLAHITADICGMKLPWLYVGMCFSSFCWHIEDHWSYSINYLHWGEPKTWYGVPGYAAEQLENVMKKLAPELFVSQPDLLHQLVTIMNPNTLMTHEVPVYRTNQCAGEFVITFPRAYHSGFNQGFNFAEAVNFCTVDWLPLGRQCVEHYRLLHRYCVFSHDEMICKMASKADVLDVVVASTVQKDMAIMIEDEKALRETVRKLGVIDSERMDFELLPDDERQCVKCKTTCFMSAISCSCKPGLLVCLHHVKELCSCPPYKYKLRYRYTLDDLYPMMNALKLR
Sequence of FBXL10 (Q8NHM5 1-650): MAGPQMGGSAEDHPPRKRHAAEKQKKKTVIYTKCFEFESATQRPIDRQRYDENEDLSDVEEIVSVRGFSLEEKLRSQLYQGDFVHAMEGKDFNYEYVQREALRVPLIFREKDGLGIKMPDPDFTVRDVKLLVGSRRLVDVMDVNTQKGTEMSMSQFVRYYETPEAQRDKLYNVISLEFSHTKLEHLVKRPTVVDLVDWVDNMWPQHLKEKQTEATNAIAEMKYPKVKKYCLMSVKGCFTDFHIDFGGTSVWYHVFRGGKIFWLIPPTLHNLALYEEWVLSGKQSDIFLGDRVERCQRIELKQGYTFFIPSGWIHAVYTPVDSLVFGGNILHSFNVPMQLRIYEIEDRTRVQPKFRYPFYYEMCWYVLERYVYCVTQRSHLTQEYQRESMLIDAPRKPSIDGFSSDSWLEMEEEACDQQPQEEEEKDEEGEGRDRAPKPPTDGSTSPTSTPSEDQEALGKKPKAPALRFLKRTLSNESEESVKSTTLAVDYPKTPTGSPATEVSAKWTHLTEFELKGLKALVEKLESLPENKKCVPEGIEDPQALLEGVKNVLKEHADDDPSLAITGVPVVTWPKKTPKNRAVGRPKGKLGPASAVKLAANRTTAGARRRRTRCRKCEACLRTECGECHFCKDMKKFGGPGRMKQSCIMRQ

On to `CC(Cn1cnc(-c2cc(C(=O)O)ccn2)c1)N1CCCC1` (centres unmarked) [Example 61, 2-{1-[2-(pyrrolidin-1-yl)propyl]-1H-imidazol-4-yl}pyridine-4-carboxylic acid], for which the IC50 at JMJD2C, on Jarid1B and on Jarid1A was at most 100 nM in each case.
As for `O=C(O)c1ccnc(-c2cn(CCNCc3ccccc3Cl)cn2)c1` [Example 78, 2-[1-[2-[(2-chlorophenyl)methylamino]ethyl]imidazol-4-yl]pyridine-4-carboxylic acid], the IC50 on JMJD2C, against Jarid1B, on Jarid1A and against FBXL10 was at most 100 nM in each case.
Take `O=C(O)c1ccnc(-c2cn(CC3CCCCC3)cn2)c1` [Example 115, 2-[1-(cyclohexylmethyl)imidazol-4-yl]pyridine-4-carboxylic acid]: the IC50 – broadly, the concentration needed to halve the response being measured – is 100 to 1000 nM at JMJD2C, at most 100 nM on Jarid1B, at most 100 nM at Jarid1A and at most 100 nM at FBXL10.
`CN(C)CCn1cnc(-c2cc(C(=O)O)ccn2)c1-c1ccc(Cl)c(F)c1` [Example 39, 2-{5-(4-chloro-3-fluorophenyl)-1-[2-(dimethylamino)ethyl]-1H-imidazol-4-yl}pyridine-4-carboxylic acid]: the IC50 against JMJD2C, on Jarid1B, against Jarid1A and against FBXL10 was at most 100 nM throughout.
For the compound `CN(C)CCCn1cnc(-c2cc(C(=O)O)ccn2)c1` [Example 42, 2-{1-[3-(dimethylamino)propyl]-1H-imidazol-4-yl}pyridine-4-carboxylic acid], the IC50 against JMJD2C, against Jarid1B and against Jarid1A was at most 100 nM throughout.
For the compound `CN1CCCC(Cn2cnc(-c3cc(C(=O)O)ccn3)c2)C1` (centres unmarked) [Example 55, 2-{1-[(1-methylpiperidin-3-yl)methyl]-1H-imidazol-4-yl}pyridine-4-carboxylic acid], the IC50 against JMJD2C, against Jarid1B, at Jarid1A and against FBXL10 was at most 100 nM throughout.
Regarding `O=C(O)c1ccnc(-c2cn(CCN3Cc4ccc(C(F)(F)F)cc4C3)cn2)c1` [Example 84, 2-[1-[2-[5-(trifluoromethyl)-1,3-dihydroisoindol-2-yl]ethyl]imidazol-4-yl]pyridine-4-carboxylic acid], the IC50 against JMJD2C, against Jarid1B, against Jarid1A and on FBXL10 was at most 100 nM each time.
For the compound `Cc1ccc(-c2c(-c3cc(C(=O)O)ccn3)ncn2C)cc1` [Example 4, 2-[1-methyl-5-(4-methylphenyl)-1H-imidazol-4-yl]pyridine-4-carboxylic acid], the half-maximal inhibitory concentration (IC50) is 1000 to 10000 nM at JMJD2C, at most 100 nM on Jarid1B, at most 100 nM on Jarid1A and 100 to 1000 nM at FBXL10.
For `CNC(=O)c1cccc(-c2c(-c3cc(C(=O)O)ccn3)ncn2C)c1` [Example 10, 2-{1-methyl-5-[3-(methylcarbamoyl)phenyl]-1H-imidazol-4-yl}pyridine-4-carboxylic acid], the IC50 on JMJD2C is 1000 to 10000 nM; on Jarid1B, 100 to 1000 nM; against Jarid1A, 100 to 1000 nM.
For the compound `Cc1cc(Cl)ccc1-c1c(-c2cc(C(=O)O)ccn2)ncn1C` [Example 26, 2-[5-(4-chloro-2-methylphenyl)-1-methyl-1H-imidazol-4-yl]pyridine-4-carboxylic acid], the IC50 is 1000 to 10000 nM on JMJD2C, 100 to 1000 nM against Jarid1B and at most 100 nM against Jarid1A.
On to `Cn1cnc(-c2cc(C(=O)O)ccn2)c1-c1ccc(C2(CO)CC2)cc1` [Example 17, 2-(5-{4-[1-(hydroxymethyl)cyclopropyl]phenyl}-1-methyl-1H-imidazol-4-yl)pyridine-4-carboxylic acid], for which the IC50 against JMJD2C was 100 to 1000 nM; on Jarid1B, at most 100 nM; at Jarid1A it was at most 100 nM.
Turning to `O=C(O)c1ccnc(-c2cn(CCN3CCOCC3)cn2)c1` [Example 45, 2-{1-[2-(morpholin-4-yl)ethyl]-1H-imidazol-4-yl}pyridine-4-carboxylic acid], the values for the IC50 on JMJD2C, against Jarid1B and at Jarid1A were over 10000 nM, 100 to 1000 nM and 1000 to 10000 nM, respectively.
Taken in the same sequence, the figures for `Cn1cnc(-c2cc(C(=O)O)ccn2)c1-c1ccc(C2(C(F)(F)F)CC2)cc1` [Example 34, 2-(1-methyl-5-{4-[1-(trifluoromethyl)cyclopropyl]phenyl}-1H-imidazol-4-yl)pyridine-4-carboxylic acid] were 100 to 1000 nM, at most 100 nM and at most 100 nM.
Consider `Cn1cnc(-c2cc(C(=O)O)ccn2)c1-c1ccc(C(C)(C)C)cc1` [Example 9, 2-[5-(4-tert-butylphenyl)-1-methyl-1H-imidazol-4-yl]pyridine-4-carboxylic acid], for which the IC50 at JMJD2C lay in the range of 1000 to 10000 nM; at Jarid1B, 100 to 1000 nM; against Jarid1A it was 100 to 1000 nM.
As for `O=C(O)c1ccnc(-c2cn(CCNCc3ccccc3C(F)(F)F)cn2)c1` [Example 75, 2-[1-[2-[[2-(trifluoromethyl)phenyl]methylamino]ethyl]imidazol-4-yl]pyridine-4-carboxylic acid], the IC50 against JMJD2C, at Jarid1B and against Jarid1A was at most 100 nM throughout.
Regarding `COc1ccc(CCn2cnc(-c3cc(C(=O)O)ccn3)c2)cc1` [Example 94, 2-[1-[2-(4-methoxyphenyl)ethyl]imidazol-4-yl]pyridine-4-carboxylic acid], the IC50 at JMJD2C, at Jarid1B and against Jarid1A was at most 100 nM each time.
In the case of `Fc1ccc(-c2c(-c3cc(-c4nn[nH]n4)ccn3)ncn2CC2CC2)cc1` [Example 135, 2-[1-(cyclopropylmethyl)-5-(4-fluorophenyl)imidazol-4-yl]-4-(2H-tetrazol-5-yl)pyridine], the IC50 against JMJD2C is 1000 to 10000 nM; at FBXL10 it was at most 100 nM.
As to `FC(F)(F)COc1ccccc1Cn1cnc(-c2cc(-c3nn[nH]n3)ccn2)c1` [Example 152, 4-(2H-tetrazol-5-yl)-2-[1-[[2-(2,2,2-trifluoroethoxy)phenyl]methyl]imidazol-4-yl]pyridine], the IC50 was 1000 to 10000 nM at JMJD2C and at most 100 nM at FBXL10.
Taken in the same sequence, the figures for `CCCCOc1cc(F)ccc1-c1c(-c2cc(-c3nn[nH]n3)ccn2)ncn1C` [Example 149, 2-[5-(2-butoxy-4-fluorophenyl)-1-methylimidazol-4-yl]-4-(2H-tetrazol-5-yl)pyridine] were 1000 to 10000 nM and at most 100 nM.
Take `COCC1(c2ccc(-c3c(-c4cc(C(=O)O)ccn4)ncn3C)cc2)CC1` [Example 25, 2-(5-{4-[1-(methoxymethyl)cyclopropyl]phenyl}-1-methyl-1H-imidazol-4-yl)pyridine-4-carboxylic acid]: the IC50 against JMJD2C is 1000 to 10000 nM; against Jarid1B, at most 100 nM; against Jarid1A it was at most 100 nM.
`Cn1nnc(-c2ccnc(-c3cn(Cc4ccccc4Cl)cn3)c2)n1` [Example 165, 2-(1-(2-chlorobenzyl)-1H-imidazol-4-yl)-4-(2-methyl-2H-tetrazol-5-yl)pyridine]: the IC50 at JMJD2C and on FBXL10 was 1000 to 10000 nM throughout.
For `Cn1cnc(-c2cc(-c3nn[nH]n3)ccn2)c1-c1ccc(F)c(OCC(F)(F)F)c1` [Example 159, 2-[5-[4-fluoro-3-(2,2,2-trifluoroethoxy)phenyl]-1-methylimidazol-4-yl]-4-(2H-tetrazol-5-yl)pyridine], the figures for the IC50 against JMJD2C and on FBXL10 were 1000 to 10000 nM and 100 to 1000 nM, respectively.
On to `Cn1cnc(-c2cc(-c3nn[nH]n3)ccn2)c1-c1ccc(F)c2ccccc12` [Example 164, 2-[5-(4-fluoronaphthalen-1-yl)-1-methylimidazol-4-yl]-4-(2H-tetrazol-5-yl)pyridine], for which the IC50 is 1000 to 10000 nM against JMJD2C and at most 100 nM on FBXL10.
Take `Clc1ccc(-c2c(-c3cc(-c4nn[nH]n4)ccn3)ncn2CCc2ccccc2Cl)cc1` [Example 133, 2-[5-(4-chlorophenyl)-1-[2-(2-chlorophenyl)ethyl]imidazol-4-yl]-4-(2H-tetrazol-5-yl)pyridine]: the IC50 was 1000 to 10000 nM on JMJD2C and 100 to 1000 nM against FBXL10.
In the case of `Fc1ccc(-c2c(-c3cc(-c4nn[nH]n4)ccn3)ncn2Cc2ccccc2Cl)cc1` [Example 137, 2-[1-[(2-chlorophenyl)methyl]-5-(4-fluorophenyl)imidazol-4-yl]-4-(2H-tetrazol-5-yl)pyridine], the figures for the IC50 against JMJD2C and against FBXL10 were 1000 to 10000 nM and at most 100 nM, respectively.
Taken in the same sequence, the figures for `FC(F)(F)Oc1ccccc1Cn1cnc(-c2cc(-c3nn[nH]n3)ccn2)c1` [Example 156, 4-(2H-tetrazol-5-yl)-2-[1-[[2-(trifluoromethoxy)phenyl]methyl]imidazol-4-yl]pyridine] were 1000 to 10000 nM and at most 100 nM.
With `CC(C)(C)C(=O)OCn1nnc(-c2ccnc(-c3ncn(Cc4ccccc4Cl)c3-c3ccc(F)cc3)c2)n1` [Example 139, [5-[2-[1-[(2-chlorophenyl)methyl]-5-(4-fluorophenyl)imidazol-4-yl]pyridin-4-yl]tetrazol-2-yl]methyl 2,2-dimethylpropanoate], the concentration for half-maximal inhibition (IC50) against JMJD2C and on FBXL10 was 1000 to 10000 nM in each case.
